Measured values reported in publication PMC11063128 (Journal of the American Chemical Society, 2023).

T1: MMADHC (CblD) (Homo sapiens, UniProt Q9H3L0, C261S/C262S)
T1 sequence (Q9H3L0 1-296 C261S/C262S): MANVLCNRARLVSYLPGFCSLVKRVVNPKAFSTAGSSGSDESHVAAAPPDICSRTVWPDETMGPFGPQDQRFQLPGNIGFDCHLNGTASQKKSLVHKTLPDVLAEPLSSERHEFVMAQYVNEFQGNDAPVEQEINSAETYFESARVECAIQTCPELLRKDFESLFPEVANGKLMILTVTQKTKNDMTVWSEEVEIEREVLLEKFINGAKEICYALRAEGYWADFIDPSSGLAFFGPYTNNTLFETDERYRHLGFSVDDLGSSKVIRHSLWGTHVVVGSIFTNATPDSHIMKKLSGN

T2: C262S ^ΔNMMADHC–S–Cob(III) (human, UniProt Q9H3L0 116-296, C262S, thiolato-cob(III)alamin (cobalamin coordinated through a cysteine sulfur, -S-Cob(III)))
T2 sequence (looked up): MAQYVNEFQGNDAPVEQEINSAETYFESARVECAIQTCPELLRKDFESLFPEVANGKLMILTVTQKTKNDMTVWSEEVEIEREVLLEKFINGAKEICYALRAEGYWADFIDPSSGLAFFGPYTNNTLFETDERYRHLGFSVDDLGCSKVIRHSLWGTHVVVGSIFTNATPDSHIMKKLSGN


Tests used:
[1] = target: T1, MMADHC (CblD); assay: UV-visible titration; type: binding
[2] = target: T2, C262S ^ΔNMMADHC–S–Cob(III); assay: UV-visible absorbance titration

Kd [1] [µM]	stoichiometry N [2]	Molecule
8.4 ± 1.9		H2OCbl
	1	^ΔNMTR, C-terminal half of human methionine synthase (cap, B12 and AdoMet domains, residues 661–1265) (domain or fragment, UniProt Q99707 661-1265, looked up) IQTDEWRNGPVEERLEYALVKGIEKHIIEDTEEARLNQKKYPRPLNIIEGPLMNGMKIVGDLFGAGKMFLPQVIKSARVMKKAVGHLIPFMEKEREETRVLNGTVEEEDPYQGTIVLATVKGDVHDIGKNIVGVVLGCNNFRVIDLGVMTPCDKILKAALDHKADIIGLSGLITPSLDEMIFVAKEMERLAIRIPLLIGGATTSKTHTAVKIAPRYSAPVIHVLDASKSVVVCSQLLDENLKDEYFEEIMEEYEDIRQDHYESLKERRYLPLSQARKSGFQMDWLSEPHPVKPTFIGTQVFEDYDLQKLVDYIDWKPFFDVWQLRGKYPNRGFPKIFNDKTVGGEARKVYDDAHNMLNTLISQKKLRARGVVGFWPAQSIQDDIHLYAEAAVPQAAEPIATFYGLRQQAEKDSASTEPYYCLSDFIAPLHSGIRDYLGLFAVACFGVEELSKAYEDDGDDYSSIMVKALGDRLAEAFAEELHERVRRELWAYCGSEQLDVADLRRLRYKGIRPAPGYPSQPDHTEKLTMWRLADIEQSTGIRLTESLAMAPASAVSGLYFSNLKSKYFAVGKISKDQVEDYALRKNISVAEVEKWLGPILGYDTD
